The test system of data set [1] is human red blood cells.
In data set [2] the test system is M. tuberculosis H37Ra (ATCC 25177). Put plainly: MIC assay for Mycobacterium tuberculosis. Type of data set: cell-based. The note with it: read-out: MtB H37Ra MIC. The method, then:
The culture was then diluted with fresh medium until an OD600 of 0.01 was reached. […] The final DMSO concentration was maintained at 0.5%. […] Three rows were reserved for each compound. […] OD600 absorbance was recorded using SPECTRAMAX M5 (Molecular Devices). Data obtained from three independent experiments were analyzed using Excel.
The culture was then diluted with fresh medium until an OD600 of 0.01 was reached. […] The final DMSO concentration was maintained at 0.5%. […] Three rows were reserved for each compound. […] OD600 absorbance was recorded using SpectraMax M5 (Molecular Devices). Data obtained from three independent experiments were analyzed using Excel.

The test system of data set [3] is HeLa cells.
Data set [4] deals with VRE 700221. Put plainly: MIC, broth microdilution (CLSI). The note with it: 16 to 18 hours at 37° C. (In general: Broth dilution looks for growth in wells or tubes with falling amounts of substance.)
Data set [5] relates to MRSE 35984. Description: MIC, broth microdilution (CLSI). The note with it: 16 to 18 hours at 37° C.
Data set [6] deals with MRSE 35984 biofilms. Put plainly: Calgary Biofilm Device (CBD) assay, MBC/MBEC. The note with it: for MRSE 35984 MBEC / MRSE 35984 MBC: CBD; for MRSE 35984 MBEC: biofilm eradication; for MRSE 35984 MBC: planktonic killing.
Data set [7] concerns MRSA BAA-1707. Description: MIC, broth microdilution (CLSI). The note with it: 16 to 18 hours at 37° C.; 0.10 = lowest concentration tested.
In data set [8] the test system is VRE 700221 biofilms. Put plainly: Calgary Biofilm Device (CBD) assay, MBC/MBEC. The note with it: for VRE 700221 MBEC / VRE 700221 MBC: CBD; for VRE 700221 MBEC: biofilm eradication; for VRE 700221 MBC: planktonic killing.
Data set [9] has as its system MRSA BAA-1707 biofilms. Put plainly: Calgary Biofilm Device (CBD) assay, MBC/MBEC. The note with it: for MRSA BAA-1707 MBC: planktonic killing.
Data set [10] deals with MRSA-2 biofilms. Description: Calgary Biofilm Device (CBD) assay, MBC/MBEC. The note with it: for MRSA-2 MBEC: biofilm eradication.

Each structure is given as a SMILES string. Values after ≈ are worked out from the molar mass of the structure shown. Values joined by “and” are separate entries in the source; they are usually repeats but may differ in a detail not shown here. Identical values can stand only once. Like-named read-outs stand apart in the source and are kept apart here. Marks after values point to notes of the source that are not given here.

By MIC is commonly meant the lowest concentration found to suppress growth. With `Oc1c(Br)cc(Br)c2nc3ccc(Cl)cc3nc12` [HP 1-22], the “Hemolysis at 200 μM” value in data set [1] (human, 1 h, 200 μM, pH 7.2) is given as not above 1%. For the same compound, the minimal inhibitory concentration (MIC) in [2] (Mycobacterium tuberculosis, 168 h, seven days at 37° C.) was 6.25 µM and 2.4 µg/mL.
Broadly, the IC50 is the concentration at which inhibition is half-maximal. The low end stands for greater potency in that assay, the high end for weaker potency in that assay. `CCc1ccc2nc3c(O)ccc(Br)c3nc2c1` [Compound 67A]: in data set [3], the IC50 was more than 100 µM. Also, the “VRE 700221 MIC” value in data set [4] was determined as 12.5 µM. In addition, the “MRSE 35984 MIC” value in data set [5] is on record as 9.38^a μM. Further, in data set [2], the MIC is recorded as 25 µM (≈ 7.58 µg/mL).
With `Oc1c(Br)cc(Br)c2nc3cc(Cl)ccc3nc12` [Compound 27], the “MRSE 35984 MBEC” value in data set [6] turned out to be 2.35 µM. Also, in data set [7], the “MRSA BAA-1707 MIC” value is 0.1 µM. Further, the MIC in data set [2] (seven days at 37° C.) is listed as 3.13 µM (≈ 1.22 µg/mL).
Turning to `Cc1ccc2nc3c(O)ccc(Br)c3nc2c1` [Compound 66A], the “VRE 700221 MIC” value in data set [4] turned out to be 25 µM. Also, the “MRSE 35984 MIC” value in data set [5] came out at 12.5 µM. Also, the “MRSA BAA-1707 MIC” value in data set [7] is 12.5 ^ μM. In addition, in data set [2], the MIC worked out at 25 µM (≈ 7.23 µg/mL).
Take `CC1=C(C)C(=O)C(COC(=O)OCOc2c(Br)cc(Br)c3nc4cc(Cl)ccc4nc23)=C(C)C1=O` [Compound 87A]: in data set [6], the “MRSE 35984 MBEC” value worked out at 25 µM and the “MRSE 35984 MBC” value came to 12.5 µM. The “VRE 700221 MIC” value in [4] stood at 1.56 µM. In addition, in data set [8], the “VRE 700221 MBEC” value was 3.13^c/3.13^c μM and the “VRE 700221 MBC” value was 3.13^c/3.13^c μM. Also, the “MRSA BAA-1707 MIC” value in data set [7] is given as 0.15^a μM. In addition, the “MRSA BAA-1707 MBC” value in data set [9] (CBD) was 6.25 µM.
For the compound `O=C(O)CN(CCN(CC(=O)O)CC(=O)O)CC(=O)O` [EDTA, ethylenediaminetetraacetic acid, reference compound], the “MRSE 35984 MBEC” value in [6] is more than 2000 µM. Moreover, the “MRSE 35984 MBC” value in [6] amounted to 1000 µM. The MBC in [6] (Staphylococcus epidermidis, MRSE, read-out: MRSE 35984 MBC) is 1000 µM (≈ 292 µg/mL); in [8] (Enterococcus, VRE, read-out: VRE 700221 MBC), more than 2000 µM; in [9] (Staphylococcus aureus, BAA1707|MRSA, read-out: MRSA BAA-1707 MBC, CBD, planktonic killing), more than 2000 µM; in data set [10] (Staphylococcus aureus, MRSA, read-out: MRSA-2 MBC), 2000 µM (≈ 584 µg/mL). The “MRSA BAA-1707 MBC” value in data set [9] (CBD) is >2000 />2000 μM. Besides, the “MRSA-2 MBEC” value in data set [10] (CBD) was 2000/>2000 μM.
Take `CC1=C(C)C(=O)C(COC(=O)OCOc2c(Br)cc(Br)c3nc4ccccc4nc23)=C(C)C1=O` [Compound 86A]: in data set [6], the “MRSE 35984 MBEC” value was 150 µM and the “MRSE 35984 MBC” value turned out to be 37.5 µM. The “VRE 700221 MIC” value in [4] is reported as 9.38^a μM. For the same compound, the “MRSE 35984 MIC” value in data set [5] is recorded as 2.35^a μM. In data set [8], the “VRE 700221 MBEC” value came to 9.38 µM and the “VRE 700221 MBC” value came to 12.5 µM. In addition, in data set [1], the “Hemolysis at 200 μM” value is recorded as not above 1%. The “MRSA BAA-1707 MIC” value in data set [7] is 2.35^a μM. Further, the “MRSA BAA-1707 MBC” value in data set [9] (CBD) worked out at 25 µM.
With `CC(=O)N[C@@H](CS)C(=O)O` [NAC, reference compound], in data set [6], the “MRSE 35984 MBEC” value was >2000/>2000 μM and the “MRSE 35984 MBC” value is >2000/>2000 μM. Further, in data set [8], the “VRE 700221 MBEC” value is reported as >2000 />2000 μM and the “VRE 700221 MBC” value was >2000 />2000 μM. Moreover, the “MRSA-2 MBEC” value in [10] (CBD) is on record as >2000/>2000 μM. For the same compound, the “MRSA-2 MBC” value in [10] (CBD, planktonic killing) is >2000/>2000 μM.
The compound `CC(C)(C)c1ccc2nc3c(O)c(Br)cc(Br)c3nc2c1` [55A] displayed a concentration for half-maximal inhibition (IC50) in data set [3] of more than 100 µM. The “MRSA-2 MBEC” value in data set [10] (CBD) was 3.13 µM.
On to `[H]/N=C(/N)N[C@H]1[C@H](O)[C@@H](O)[C@H](O[C@@H]2O[C@@H](C)[C@](O)(C=O)[C@H]2O[C@@H]2O[C@@H](CO)[C@H](O)[C@@H](O)[C@@H]2NC)[C@@H](N/C(N)=N\[H])[C@@H]1O` [streptomycin, reference compound], for which the MIC in data set [2] (Mycobacterium tuberculosis, 168 h) is 1.32 µM (≈ 0.768 µg/mL).
Consider `Oc1ccc(Br)c2nc3cc(Cl)ccc3nc12` [Compound 69A], for which the IC50 in data set [3] is more than 100 µM. Besides, the “VRE 700221 MIC” value in data set [4] turned out to be 25 µM. For the same compound, the “MRSE 35984 MIC” value in data set [5] is recorded as 18.8^a μM. The MIC in data set [2] is recorded as 6.25 µM (≈ 1.93 µg/mL).
Consider `CS(=O)(=O)N1CCN(C(=O)Oc2c(Br)cc(Br)c3nc4ccccc4nc23)C1=O` [Compound 76A], for which the concentration for half-maximal inhibition (IC50) in [3] is more than 100 µM. Besides, in [6], the “MRSE 35984 MBEC” value turned out to be 37.5 µM and the “MRSE 35984 MBC” value came to 18.8 µM. Moreover, in data set [4], the “VRE 700221 MIC” value came out at 3.13 µM. In addition, in data set [5], the “MRSE 35984 MIC” value came to 1.56 µM. Moreover, in data set [8], the “VRE 700221 MBEC” value is given as 9.38^a/9.38^a μM and the “VRE 700221 MBC” value is on record as 9.38^a/9.38^a μM. The “Hemolysis at 200 μM” value in [1] is listed as not above 1%. In [9] (CBD, biofilm eradication), the “MRSA BAA-1707 MBEC” value was 75 µM. The “MRSA BAA-1707 MBC” value in data set [9] (CBD) came to 37.5 µM.

The values are drawn from patent publication US11053205B2, “Phenazine derivatives as antimicrobial agents” (University of Florida Research Foundation, Incorporated, priority 2017, dated 2021).
